Assays:
[1] = Skin permeation of CBD formulation in Franz-type diffusion cell; assay type: in vitro ADME
Procedure: Dermatomed skin from a single donor was mounted in a Franz-type diffusion cell (0.55 cm^2 receptor fluid exposure surface area) and dosed with 5 ul of CBD formulated in an mixture of a volatile solvent (hexylmethyldisiloxane/polymethylsiloxane—93% w/w), and residual solvent (arlamol E—2% w/w) at a concentration of 5.0% (w/w; 35.5 mg/ml). Following dosing, receptor phase samples were collected at 4, 10, 24 and 48 hours; after which the study was terminated.
The residual formulation was removed by tape stripping and the epidermis and dermis separated by blunt dissection. The levels of CBD in the epidermis, dermis, and receptor fluid samples were then analyzed using a bioanalytical method with LC-MS/MS detection.

[2] = system: sensitized guinea-pigs; details: intravenous administration; cited from earlier work
[3] = system: anandamide; details: in vitro; cited from earlier work
[4] = biological target: human vanilloid receptor type 1 (VR1) (Homo sapiens, UniProt Q8NER1); details: in vitro; cited from earlier work
human vanilloid receptor type 1 (VR1), sequence (Q8NER1 whole entry): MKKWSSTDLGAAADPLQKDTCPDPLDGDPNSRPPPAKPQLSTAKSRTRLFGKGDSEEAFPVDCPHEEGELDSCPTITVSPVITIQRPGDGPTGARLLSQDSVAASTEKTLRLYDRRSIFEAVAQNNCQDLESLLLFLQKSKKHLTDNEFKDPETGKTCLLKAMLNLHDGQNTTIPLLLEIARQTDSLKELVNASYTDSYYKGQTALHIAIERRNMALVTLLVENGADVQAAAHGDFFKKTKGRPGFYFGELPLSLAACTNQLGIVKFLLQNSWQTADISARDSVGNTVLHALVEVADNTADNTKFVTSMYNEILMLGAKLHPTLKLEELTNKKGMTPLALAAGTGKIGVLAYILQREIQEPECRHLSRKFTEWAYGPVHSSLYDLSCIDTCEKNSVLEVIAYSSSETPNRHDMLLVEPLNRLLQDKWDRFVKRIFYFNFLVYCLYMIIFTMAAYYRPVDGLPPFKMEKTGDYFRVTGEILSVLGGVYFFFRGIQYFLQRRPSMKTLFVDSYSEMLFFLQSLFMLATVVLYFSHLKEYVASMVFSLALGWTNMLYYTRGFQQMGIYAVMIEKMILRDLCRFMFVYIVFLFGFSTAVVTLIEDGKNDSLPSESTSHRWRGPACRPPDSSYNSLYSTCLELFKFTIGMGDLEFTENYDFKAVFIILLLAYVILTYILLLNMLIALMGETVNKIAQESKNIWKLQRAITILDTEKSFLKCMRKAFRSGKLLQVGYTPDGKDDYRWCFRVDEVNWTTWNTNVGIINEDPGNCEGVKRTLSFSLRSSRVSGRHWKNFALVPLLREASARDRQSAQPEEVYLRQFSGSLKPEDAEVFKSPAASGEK

[5] = system: rats; details: injected into rats; cited from earlier work
[6] = 5.0% w/w CBD formulation, 48-hour period
[7] = 5 ul of 5.0% w/w CBD formulation, over the 48-hour exposure period
[8] = following application of CBD mixture, 48 hours

For `C=C(C)C1CCC(C)=CC1c1c(O)cc(CCCCC)cc1O` (centres unmarked) [CBD, 2-[3-methyl-6-(1-methylethenyl)-2-cyclohexen-1-yl]-5-pentyl-1,3-benzenediol], the “dermal deposition of CBD” value [1, 6] was 4.54 % of the applied dose, the “epidermal deposition of CBD” value [1, 6] was 13.17 % of the applied dose and the “CBD in the receptor phase (skin permeation), amount per area” value [1, 7] was less than 278 ng/cm^2. The “CBD in the receptor phase (skin permeation), percent of applied dose” value [1, 7] was “less than 0.081%”, the “dermis concentration per area” value [1, 8] was 8,408 ng/cm^2 and the “dermis concentration per tissue weight” value [1, 8] was 1,933 ng/g of tissue. For the same compound, the “dermis concentration per volume” value [1, 8] was ~1,933 ng/mL, the “effect on airway obstruction” value [2] was “reduced airway obstruction” and the effect on anandamide [3] was “inhibit”. For the same compound, the “effect on human vanilloid receptor type 1 (VR1)” value [4] was “stimulate” and the “effect on cardiac inflammation” value [5] was “attenuated cardiac inflammation”.

— patent US11896560B2, “Cannabinoid dosing regime for dermatitis and inflammatory skin conditions” (Botanix Pharmaceuticals LTD, priority 2018, dated 2024)
